According to patent publication US20260315464A1, “COMPOSITIONS, METHODS, AND SYSTEMS FOR MODULATING SPLICING OF MSH3” (REVIR THERAPEUTICS, INC., priority 2023, published 2026):

System: MSH3
Assay: QPCR assay for levels of MSH3 upon compound treatment in HEK293T or AD293 cells (fold-change of MSH3 transcript, EC50 of MSH3 downregulation; total MSH3 exons 13/14, exons 20/21; Table 8)
Type: cell-based
Conditions: for EC50: EC50 of MSH3 downregulation, XtalPi; for mrna remaining at 1 µM / mrna remaining at 10 µM: Homo sapiens, fold-change of the MSH3 transcript, normalized to GAPDH; for mrna remaining at 1 µM: 1 μM compound; for mrna remaining at 10 µM: 10 μM compound
Method in brief: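 MSH3 mRNA was quantified by TaqMan qPCR covering exons 13/14, exons 20/21, exon 13/PE14A and exon 20/PE21A, with GAPDH as reference. Cells used were HEK293T or AD293, treated with compound at 1 μM and […].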

Compound	EC50 [nM]	mrna remaining at 1 µM [%]	mrna remaining at 10 µM [%]
Cc1nn(C)nc1-c1cc(F)c2c(c1)C(=O)N(c1ccc(O[C@H]3C[C@]4(C)CC[C@](C)(C3)N4)nn1)C2 [Compound 283, 6-(2,5-dimethyl-2H-1,2,3-triazol-4-yl)-2-(6-(((1R,3s,5S)-1,5-dimethyl-8-azabicyclo[3.2.1]octan-3-yl)oxy)pyridazin-3-yl)-4-fluoroisoindolin-1-one]	799	48	11
Cc1nn(C)nc1-c1cnc2c(c1)C(=O)N(c1ccc(O[C@H]3C[C@]4(C)CC[C@](C)(C3)N4)nn1)C2 [Compound 206, 3-(2,5-dimethyl-2H-1,2,3-triazol-4-yl)-6-(6-(((1R,3s,5S)-1,5-dimethyl-8-azabicyclo[3.2.1]octan-3-yl)oxy)pyridazin-3-yl)-6,7-dihydro-5H-pyrrolo[3,4-b]pyridin-5-one]	507	36	13
CN(c1ncc(N2Cc3cnc(-c4cnn(C)n4)cc3C2=O)nn1)[C@H]1C[C@]2(C)CC[C@](C)(C1)N2 [Compound 73, 2-(3-(((1R,3s,5S)-1,5-dimethyl-8-azabicyclo[3.2.1]octan-3-yl)(methyl)amino)-1,2,4-triazin-6-yl)-6-(2-methyl-2H-1,2,3-triazol-4-yl)-2,3-dihydro-1H-pyrrolo[3,4-c]pyridin-1-one]	–	85	70
Cn1cc(-c2cc3c(cn2)CN(c2ccc(O[C@H]4C[C@]5(C)CC[C@](C)(C4)N5)nn2)C3=O)c(Cl)n1 [Compound 458, 6-(3-chloro-1-methyl-1H-pyrazol-4-yl)-2-(6-(((1R,3s,5S)-1,5-dimethyl-8-azabicyclo[3.2.1]octan-3-yl)oxy)pyridazin-3-yl)-2,3-dihydro-1H-pyrrolo[3,4-c]pyridin-1-one]	820	40	11
C[C@@H]1CN(c2ccc(N3Cc4ncc(-c5nn(C)nc5Cl)cc4C3=O)nn2)[C@@H](C)CN1 [Compound 614, 3-(5-chloro-2-methyl-2H-1,2,3-triazol-4-yl)-6-(6-((2S,5R)-2,5-dimethylpiperazin-1-yl)pyridazin-3-yl)-6,7-dihydro-5H-pyrrolo[3,4-b]pyridin-5-one]	–	107	79
CN(c1ccc(N2Cc3cnc(-c4cnn(C)n4)cc3C2=O)nn1)[C@H]1C[C@]2(C)CC[C@](C)(C1)N2 [Compound 70, 2-(6-(((1R,3s,5S)-1,5-dimethyl-8-azabicyclo[3.2.1]octan-3-yl)(methyl)amino)pyridazin-3-yl)-6-(2-methyl-2H-1,2,3-triazol-4-yl)-2,3-dihydro-1H-pyrrolo[3,4-c]pyridin-1-one]	–	139	56
CN(C)C1CCN(c2ccc(N3Cc4c(F)cc(-c5nn(C)nc5Cl)cc4C3=O)nn2)CC1 [Compound 667, 6-(5-chloro-2-methyl-2H-1,2,3-triazol-4-yl)-2-(6-(4-(dimethylamino)piperidin-1-yl)pyridazin-3-yl)-4-fluoroisoindolin-1-one]	–	92	71
Cc1nn(C)nc1-c1cnc2c(c1)C(=O)N(c1ccc(N3C[C@@H](C)NC[C@@H]3C)nn1)C2 [Compound 613, 3-(2,5-dimethyl-2H-1,2,3-triazol-4-yl)-6-(6-((2S,5R)-2,5-dimethylpiperazin-1-yl)pyridazin-3-yl)-6,7-dihydro-5H-pyrrolo[3,4-b]pyridin-5-one]	–	130	91
Cc1nn(C)cc1-c1cc(F)c2c(c1)C(=O)N(c1ccc(N(C)[C@H]3C[C@]4(C)CC[C@](C)(C3)N4)nn1)C2 [Compound 274, 6-(1,3-dimethyl-1H-pyrazol-4-yl)-2-(6-(((1R,3s,5S)-1,5-dimethyl-8-azabicyclo[3.2.1]octan-3-yl)(methyl)amino)pyridazin-3-yl)-4-fluoroisoindolin-1-one]	454	17	–
Cc1nn(C)cc1-c1cnc2c(c1)C(=O)N(c1ccc(NC3CC(C)(C)NC(C)(C)C3)nn1)C2 [Compound 207, 3-(1,3-dimethyl-1H-pyrazol-4-yl)-6-(6-((2,2,6,6-tetramethylpiperidin-4-yl)amino)pyridazin-3-yl)-6,7-dihydro-5H-pyrrolo[3,4-b]pyridin-5-one]	~3050	108	18
CN(c1ccc(N2Cc3ncc(-c4cnn(CC(C)(C)O)c4)cc3C2=O)nn1)[C@H]1C[C@]2(C)CC[C@](C)(C1)N2 [Compound 604, 6-(6-(((1R,3s,5S)-1,5-dimethyl-8-azabicyclo[3.2.1]octan-3-yl)(methyl)amino)pyridazin-3-yl)-3-(1-(2-hydroxy-2-methylpropyl)-1H-pyrazol-4-yl)-6,7-dihydro-5H-pyrrolo[3,4-b]pyridin-5-one]	–	63	93
Cc1nn(C)cc1-c1cc2c(cn1)CN(c1ccc(OC3CC(C)(C)NC4(CC4)C3)nn1)C2=O (stereo not shown) [Compound 59, 6-(1,3-dimethyl-1H-pyrazol-4-yl)-2-(6-((5,5-dimethyl-4-azaspiro[2.5]octan-7-yl)oxy)pyridazin-3-yl)-2,3-dihydro-1H-pyrrolo[3,4-c]pyridin-1-one]	–	101	29
Cc1nn(C)cc1-c1cnc2c(n1)C(=O)N(c1ccc(N(C)[C@H]3C[C@]4(C)CC[C@](C)(C3)N4)nn1)C2 [Compound 496, 3-(1,3-dimethyl-1H-pyrazol-4-yl)-6-(6-(((1R,3s,5S)-1,5-dimethyl-8-azabicyclo[3.2.1]octan-3-yl)(methyl)amino)pyridazin-3-yl)-6,7-dihydro-5H-pyrrolo[3,4-b]pyrazin-5-one]	690	–	–
Cn1ncc(-c2cnc3c(c2)C(=O)N(c2ccc(OC4CC(C)(C)NC(C)(C)C4)nn2)C3)n1 [Compound 191, 3-(2-methyl-2H-1,2,3-triazol-4-yl)-6-(6-((2,2,6,6-tetramethylpiperidin-4-yl)oxy)pyridazin-3-yl)-6,7-dihydro-5H-pyrrolo[3,4-b]pyridin-5-one]	–	45	17
CN(c1ncc(N2Cc3ccc(-c4cnn(C)n4)cc3C2=O)nn1)[C@H]1C[C@]2(C)CC[C@](C)(C1)N2 [Compound 429, 2-(3-(((1R,3s,5S)-1,5-dimethyl-8-azabicyclo[3.2.1]octan-3-yl)(methyl)amino)-1,2,4-triazin-6-yl)-6-(2-methyl-2H-1,2,3-triazol-4-yl)isoindolin-1-one]	–	102	52
Cn1ncc(-c2cnc3c(c2)C(=O)N(c2ccc(O[C@H]4C[C@]5(C)CC[C@](C)(C4)N5)nn2)C3)n1 [Compound 599, 6-(6-(((1R,3s,5S)-1,5-dimethyl-8-azabicyclo[3.2.1]octan-3-yl)oxy)pyridazin-3-yl)-3-(2-methyl-2H-1,2,3-triazol-4-yl)-6,7-dihydro-5H-pyrrolo[3,4-b]pyridin-5-one]	–	94	24
Cc1nc(C)c(-c2cnc3c(c2)C(=O)N(c2ccc(N(C)C4CC(C)(C)NC(C)(C)C4)nn2)C3)s1 [Compound 167, 3-(2,4-dimethylthiazol-5-yl)-6-(6-(methyl(2,2,6,6-tetramethylpiperidin-4-yl)amino)pyridazin-3-yl)-6,7-dihydro-5H-pyrrolo[3,4-b]pyridin-5-one]	–	47	11
Cc1nn(C)nc1-c1cnc2c(c1)C(=O)N(c1ccc(OC3CC(C)(C)NC4(CC4)C3)nn1)C2 (stereo not shown) [Compound 228, 3-(2,5-dimethyl-2H-1,2,3-triazol-4-yl)-6-(6-((5,5-dimethyl-4-azaspiro[2.5]octan-7-yl)oxy)pyridazin-3-yl)-6,7-dihydro-5H-pyrrolo[3,4-b]pyridin-5-one]	792	58	37
Cc1nn(C)cc1-c1cc2c(cn1)CN(c1ccc(OC3CC(C)(C)NC(C)(C)C3)nn1)C2=O [Compound 76, 6-(1,3-dimethyl-1H-pyrazol-4-yl)-2-(6-((2,2,6,6-tetramethylpiperidin-4-yl)oxy)pyridazin-3-yl)-2,3-dihydro-1H-pyrrolo[3,4-c]pyridin-1-one]	–	98	20
CN(c1ccc(N2Cc3ncc(-c4nn(C)nc4Cl)cc3C2=O)nn1)[C@H]1C[C@]2(C)CC[C@](C)(C1)N2 [Compound 589, 3-(5-chloro-2-methyl-2H-1,2,3-triazol-4-yl)-6-(6-(((1R,3s,5S)-1,5-dimethyl-8-azabicyclo[3.2.1]octan-3-yl)(methyl)amino)pyridazin-3-yl)-6,7-dihydro-5H-pyrrolo[3,4-b]pyridin-5-one]	349	20	11
Cc1nn(C)cc1-c1cnc2c(c1)C(=O)N(c1ccc(N(C)C3CC(C)(C)NC(C)(C)C3)nn1)C2 [Compound 156, 3-(1,3-dimethyl-1H-pyrazol-4-yl)-6-(6-(methyl(2,2,6,6-tetramethylpiperidin-4-yl)amino)pyridazin-3-yl)-6,7-dihydro-5H-pyrrolo[3,4-b]pyridin-5-one]	–	81	19
Cc1nn(C)nc1-c1cnc2c(n1)C(=O)N(c1ccc(N(C)[C@H]3C[C@]4(C)CC[C@](C)(C3)N4)nn1)C2 [Compound 590, 3-(2,5-dimethyl-2H-1,2,3-triazol-4-yl)-6-(6-(((1R,3s,5S)-1,5-dimethyl-8-azabicyclo[3.2.1]octan-3-yl)(methyl)amino)pyridazin-3-yl)-6,7-dihydro-5H-pyrrolo[3,4-b]pyrazin-5-one]	569	24	9
Cn1nc(Cl)c(-c2cnc3c(n2)C(=O)N(c2ccc(O[C@H]4C[C@]5(C)CC[C@](C)(C4)N5)nn2)C3)n1 [Compound 503, 3-(5-chloro-2-methyl-2H-1,2,3-triazol-4-yl)-6-(6-(((1R,3s,5S)-1,5-dimethyl-8-azabicyclo[3.2.1]octan-3-yl)oxy)pyridazin-3-yl)-6,7-dihydro-5H-pyrrolo[3,4-b]pyrazin-5-one]	–	70	18
